# Data taken from patent US9399646B2 (Genentech, Inc., priority 2010, dated 2016).
# What was measured:
# [1] = target: T1, ER-α in MCF-7 cells (Homo sapiens, UniProt P03372); test: Breast cancer cell ER-α in cell western assay (SP1); assay type: cell-based; design: endogenous in cells; host or cells: MCF-7; settings: 4 or 24 hr post compound addition; for Emax: MCF7, SP1 antibody, read-out: ER-α In Cell Western Assay (SP1) Max Response; for DC50: SP1 antibody, read-out: ER-α In Cell Western Assay (SP1) IC50
# T1 sequence (P03372 1-595): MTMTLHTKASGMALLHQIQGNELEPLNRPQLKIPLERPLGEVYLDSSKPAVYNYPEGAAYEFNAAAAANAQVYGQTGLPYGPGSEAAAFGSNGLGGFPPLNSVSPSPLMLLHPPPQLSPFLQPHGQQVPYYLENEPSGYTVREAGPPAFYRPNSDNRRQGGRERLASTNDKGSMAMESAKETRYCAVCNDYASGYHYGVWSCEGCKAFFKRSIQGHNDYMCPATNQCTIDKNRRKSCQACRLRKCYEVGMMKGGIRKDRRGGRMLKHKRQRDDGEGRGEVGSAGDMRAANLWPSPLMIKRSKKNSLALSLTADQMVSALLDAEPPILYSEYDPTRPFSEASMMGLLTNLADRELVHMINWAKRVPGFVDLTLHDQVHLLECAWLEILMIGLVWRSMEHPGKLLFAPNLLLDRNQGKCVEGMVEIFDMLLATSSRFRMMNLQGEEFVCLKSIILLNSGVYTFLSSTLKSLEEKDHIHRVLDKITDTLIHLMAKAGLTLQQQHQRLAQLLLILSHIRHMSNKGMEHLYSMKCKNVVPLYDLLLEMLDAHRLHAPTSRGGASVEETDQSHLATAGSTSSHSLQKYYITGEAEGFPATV
# Method: MCF-7 cells were adjusted to a concentration of 200,000 cells per mL in RPMI containing 10% charcoal-stripped FBS and 20 mM HEPES. 16 microliters of the cell suspension (3200 cells) was added to each well of a poly-D-lysine 384 well plate, and the cells were incubated overnight to allow the cells to adhere. The following day an eleven point, serial semilog dilution of each compound was added to the cells in 16 μL at a final concentration ranging from 0.3-0.000003 μM. At 4 or 24 hr post compound addition, the cells were fixed (10% formalin in PBS) for 20 minutes. Cells were permeablized in PBS 0.1% Triton and blocked with LICOR blocking buffer (50 μl/well, 90°). The wells were then incubated overnight at 4° C. with SP1 rabbit monoclonal Ab (Thermo Scientific) diluted 1:1000 in LICOR blocking buffer/0.1% Tween-20. Wells which were treated with blocking buffer with Tween but no antibody were used as a background control. Wells were washed with 0.1% Tween-20/PBS and then incubated in goat anti-rabbit IRDye™ 800CW (LICOR Inc.; 1:1000) and DRAQ5 DNA dye (1:2000 for 2 mM stock) diluted in LICOR blocking buffer containing 0.1% Tween-20 and 0.01% SDS for 60 minutes. Cells were washed (50 μl/well, 5′ each) in 0.1% Tween-20/PBS. Plates were scanned on a LICOR Odyssey infrared imaging system. Integrated intensities in the 800 nm channel and 700 nm channel were measured to determine levels of ER and DNA respectively. Percent ER levels were determined as follows: (Integrated intensity 800 nm sample/integrated intensity 700 nm sample)/(Integrated intensity 800 nm untreated cells/integrated intensity 700 nm untreated cells)×100=% ER levels.
# [2] = tested on: MCF-7 cells; test: Breast cancer cell viability assay (CellTiter-Glo, 5 days); assay type: cell-based; settings: 5 days' compound exposure; for IC50: Homo sapiens, MCF7, 120 h
# Method: MCF-7 cells were adjusted to a concentration of 20,000 cells per mL in RPMI containing 10% FBS and 20 mM HEPES. 16 microliters of the cell suspension (320 cells) was added to each well of a 384 well plate, and the cells were incubated overnight to allow the cells to adhere. The following day an eleven point, serial semilog dilution of each compound was added to the cells in 16 μL at a final concentration ranging from 0.3-0.000003 μM. After 5 days' compound exposure, 16 μL of CellTiter-GLo (Promega, Madison Wis.) was added to the cells the relative luminescence units (RLUs) of each well was determined CellTiter-Glo added to 32 μL of medium without cells was used to obtain a background value. The Percent viability of each sample was determined as follows: (RLU sample-RLU background/RLU untreated cells-RLU background)×100=% viability.
SMILES,Emax [1] [%],DC50 [1] [nM],IC50 [2] [nM],MCF7 Viability Assay Max Response [2]
"CC/C(=C(/c1ccc(/C=C/C(=O)O)cc1)c1ccc2c(=O)[nH]ccc2c1)c1ccccc1 [Compound 97, (E)-3-(4-((E)-1-(1-Oxo-1,2-dihydroisoquinolin-6-yl)-2-phenylbut-1-en-1-yl)phenyl)acrylic acid]",≥ 40,> 100,≤ 100,++ (++ = a single % value ≧ 40%)
"CC/C(=C(/c1ccc(/C=C/C(=O)O)cc1)c1ccc2c(c1)CCC(=O)N2)c1ccccc1 [Compound 100, (E)-3-(4-((E)-1-(2-Oxo-1,2,3,4-tetrahydroquinolin-6-yl)-2-phenylbut-1-en-1-yl)phenyl)acrylic acid]",≥ 40,> 100,> 100,++ (++ = a single % value ≧ 40%)
"CC/C(=C(/c1ccc(/C=C/C(=O)O)cc1)c1ccc2c(c1)COC(=O)N2)c1ccccc1 [Compound 101, (E)-3-(4-((E)-1-(2-Oxo-2,4-dihydro-1H-benzo[d][1,3]oxazin-6-yl)-2-phenylbut-1-en-1-yl)phenyl)acrylic acid]",≥ 40,> 100,> 100,++ (++ = a single % value ≧ 40%)
"CC/C(=C(/c1ccc(/C=C/C(=O)O)cc1)c1cccc2[nH]c(=O)ccc12)c1ccccc1 [Compound 102, (E)-3-(4-((E)-1-(2-Oxo-1,2-dihydroquinolin-5-yl)-2-phenylbut-1-en-1-yl)phenyl)acrylic acid]",≥ 40,> 100,> 100,+ (+ = a single % value < 40%)
"CC/C(=C(/c1ccc(/C=C/C(=O)O)cc1)c1ccc2c(c1)SCC(=O)N2)c1ccccc1 [Compound 103, (E)-3-(4-((E)-1-(3-Oxo-3,4-dihydro-2H-benzo[b][1,4]thiazin-7-yl)-2-phenylbut-1-en-1-yl)phenyl)acrylic acid]",≥ 40,> 100,> 100,++ (++ = a single % value ≧ 40%)
"CC/C(=C(/c1ccc(/C=C/C(=O)O)cc1)c1ccc2c(c1)C(=O)NC2)c1ccccc1 [Compound 104, (E)-3-(4-((E)-1-(3-Oxoisoindolin-5-yl)-2-phenylbut-1-en-1-yl)phenyl)acrylic acid]",≥ 40,> 100,> 100,++ (++ = a single % value ≧ 40%)
"CC/C(=C(/c1ccc(/C=C/C(=O)O)cc1)c1ccc2[nH]c(=O)ccc2c1)c1ccccc1 [Compound 105, (E)-3-(4-((E)-1-(2-Oxo-1,2-dihydroquinolin-6-yl)-2-phenylbut-1-en-1-yl)phenyl)acrylic acid]",≥ 40,> 100,> 100,++ (++ = a single % value ≧ 40%)
"CC/C(=C(/c1ccc(/C=C/C(=O)O)cc1)c1ccc2c(c1)OCC(=O)N2)c1ccccc1 [Compound 107, (E)-3-(4-((E)-1-(3-Oxo-3,4-dihydro-2H-benzo[b][1,4]oxazin-7-yl)-2-phenylbut-1-en-1-yl)phenyl)acrylic acid]",≥ 40,> 100,> 100,++ (++ = a single % value ≧ 40%)
"CC/C(=C(/c1ccc(/C=C/C(=O)O)cc1)c1ccc2ncccc2c1)c1ccc(F)cc1 [Compound 118, (E)-3-(4-((E)-2-(4-Fluorophenyl)-1-(quinolin-6-yl)but-1-en-1-yl)phenyl)acrylic acid]",≥ 40,> 100,> 100,++ (++ = a single % value ≧ 40%)
"CC/C(=C(/c1ccc(/C=C/C(=O)O)cc1)c1ccc2[nH]c(=O)[nH]c2c1)c1ccccc1 [Compound 122, (E)-3-(4-((E)-1-(2-Oxo-2,3-dihydro-1H-benzo[d]imidazol-5-yl)-2-phenylbut-1-en-1-yl)phenyl)acrylic acid]",≥ 40,> 100,> 100,++ (++ = a single % value ≧ 40%)
"CC/C(=C(/c1ccc(/C=C/C(=O)O)cc1)c1ccc2nccnc2c1)c1ccccc1 [Compound 124, (E)-3-(4-((E)-2-Phenyl-1-(quinoxalin-6-yl)but-1-en-1-yl)phenyl)acrylic acid]",≥ 40,> 100,> 100,+ (+ = a single % value < 40%)
"CC/C(=C(/c1ccc(/C=C/C(=O)O)cc1)c1ccn2nccc2c1)c1ccccc1 [Compound 125, (E)-3-(4-((E)-2-Phenyl-1-(pyrazolo[1,5-a]pyridin-5-yl)but-1-en-1-yl)phenyl)acrylic acid]",≥ 40,> 100,> 100,++ (++ = a single % value ≧ 40%)

# More lines, main results first:
Emax [1] [%],DC50 [1] [nM],IC50 [2] [nM],SMILES,MCF7 Viability Assay Max Response [2]
≥ 40,≤ 100,≤ 100,"CC/C(=C(/c1ccc(/C=C/C(=O)O)cc1)c1cc(F)c2[nH]ccc2c1)c1ccccc1 [Compound 92, (E)-3-(4-((E)-1-(7-Fluoro-1H-indol-5-yl)-2-phenylbut-1-en-1-yl)phenyl)acrylic acid]",++ (++ = a single % value ≧ 40%)
≥ 40,≤ 100,≤ 100,"CC/C(=C(/c1ccc(/C=C/C(=O)O)cc1)c1ccc2[nH]ncc2c1)c1cccc2occc12 [Compound 96, (E)-3-(4-((E)-2-(Benzofuran-4-yl)-1-(1H-indazol-5-yl)but-1-en-1-yl)phenyl)acrylic acid]",++ (++ = a single % value ≧ 40%)
≥ 40,≤ 100,≤ 100,"CC/C(=C(/c1ccc(/C=C/C(=O)O)cc1)c1ccc2c(c1)CNC2=O)c1ccccc1 [Compound 110, (E)-3-(4-((E)-1-(1-Oxoisoindolin-5-yl)-2-phenylbut-1-en-1-yl)phenyl)acrylic acid]",++ (++ = a single % value ≧ 40%)
≥ 40,≤ 100,≤ 100,"CC/C(=C(/c1ccc(/C=C/C(=O)O)cc1)c1ccc2[nH]ncc2n1)c1ccccc1 [Compound 120, (E)-3-(4-((E)-2-Phenyl-1-(1H-pyrazolo[4,3-b]pyridin-5-yl)but-1-en-1-yl)phenyl)acrylic acid]",++ (++ = a single % value ≧ 40%)
≥ 40,≤ 100,> 100,"CC/C(=C(/c1ccc(/C=C/C(=O)O)cc1)c1ccc2ccccc2c1)c1ccccc1 [Compound 123, (E)-3-(4-((E)-1-(Naphthalen-2-yl)-2-phenylbut-1-en-1-yl)phenyl)acrylic acid]",++ (++ = a single % value ≧ 40%)
≥ 40,≤ 100,> 100,"CC/C(=C(/c1ccc(/C=C/C(=O)O)cc1)c1ccc2nccn2c1)c1ccccc1 [Compound 126, (E)-3-(4-((E)-1-(Imidazo[1,2-a]pyridin-6-yl)-2-phenylbut-1-en-1-yl)phenyl)acrylic acid]",++ (++ = a single % value ≧ 40%)
